For experiment [1], the target named is T1, human dopamine D3 receptors (Homo sapiens, UniProt P35462).
T1 construct: expressed in transfected cells
The experiment is described as follows: Dopamine D3 receptor binding, displacement of [125I]-iodosulpiride. The conditions noted are these: membranes from HEK-293 cells with stably expressed human D3 receptors, 0.1 nM [125I]-iodosulpiride. How it is done: (§1) The substance to be tested was dissolved either in methanol/Chremophor® (BASF-AG) or in dimethyl sulfoxide and then diluted with water to the desired concentration.
(§2) Triplicate mixtures were carried out.
The incubation buffer comprised 50 mM Tris, 120 mM NaCl, 5 mM KCl, 2 mM CaCl2, 2 mM MgCl2 and 0.1% bovine serum albumin, 10 μM quinolone, 0.1% ascorbic acid (prepared fresh each day). The buffer was adjusted to pH 7.4 with HCl.
(§3) III. Measurement and Evaluation:
(§4) After incubation at 25° C. for 60 minutes, the mixtures were filtered under vacuum through Whatman GF/B glass fiber filters using a cell harvester. The filters were transferred by a filter transfer system into scintillation vials. After addition of 4 ml of Ultima Gold® (Packard), the samples were shaken for one hour and then the radioactivity was counted in a beta counter (Packard, Tricarb 2000 or 2200CA). The cp values were converted into dpm by means of a standard quench series with the aid of the instrument's own program.
(§5) Evaluation of the inhibition plots took place by iterative nonlinear regression analysis using the Statistical Analysis System (SAS) similar to the “LIGAND” program described by Munson and Rodbard.
On the technique in general: Loss of bound radioactivity is the signal in a displacement assay; it reports binding, not function.

Experiment [2] deals with T2, human dopamine D2L receptors (long isoform) (Homo sapiens, UniProt P14416).
T2 construct: expressed in transfected cells
T2 sequence (P14416 whole entry, canonical isoform): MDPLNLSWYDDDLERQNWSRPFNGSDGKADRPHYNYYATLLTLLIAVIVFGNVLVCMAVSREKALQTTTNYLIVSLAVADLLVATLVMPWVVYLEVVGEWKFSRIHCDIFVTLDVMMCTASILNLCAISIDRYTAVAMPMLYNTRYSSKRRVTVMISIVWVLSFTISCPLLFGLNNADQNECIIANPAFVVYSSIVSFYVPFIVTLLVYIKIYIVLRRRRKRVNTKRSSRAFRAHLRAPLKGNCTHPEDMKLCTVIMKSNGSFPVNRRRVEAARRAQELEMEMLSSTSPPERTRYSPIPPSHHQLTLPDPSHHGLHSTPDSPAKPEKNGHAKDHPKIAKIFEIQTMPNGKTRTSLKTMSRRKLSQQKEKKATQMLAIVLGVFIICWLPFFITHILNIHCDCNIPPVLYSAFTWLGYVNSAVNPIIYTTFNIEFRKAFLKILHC
The experiment is described as follows: Dopamine D2L receptor binding, displacement of [125I]-iodospiperone. Conditions: ratio Ki(D2L)/Ki(D3); HEK-293 membranes. How it is done: as §1
II. Dopamine D2L Receptor:
as §2
The incubation buffer comprised 50 mM Tris, 120 mM NaCl, 5 mM KCl, 2 mM CaCl2, 2 mM MgCl2 and 0.1% bovine serum albumin. The buffer was adjusted to pH 7.4 with HCl.
as §3, §4, §5

One may read the Ki as the dissociation constant of the complex between target and ligand, obtained from inhibition or displacement.

T1 sequence (P35462 whole entry): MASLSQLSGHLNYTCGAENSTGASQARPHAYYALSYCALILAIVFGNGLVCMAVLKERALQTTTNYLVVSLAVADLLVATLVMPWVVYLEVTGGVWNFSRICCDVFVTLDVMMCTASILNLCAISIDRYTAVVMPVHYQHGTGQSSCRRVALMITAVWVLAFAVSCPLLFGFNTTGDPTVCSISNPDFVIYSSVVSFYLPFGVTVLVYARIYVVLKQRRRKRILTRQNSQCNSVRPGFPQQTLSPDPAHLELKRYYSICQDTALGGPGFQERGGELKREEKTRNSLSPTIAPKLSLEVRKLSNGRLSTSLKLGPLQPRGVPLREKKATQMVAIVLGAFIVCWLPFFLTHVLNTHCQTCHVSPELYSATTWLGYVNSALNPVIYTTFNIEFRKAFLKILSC

Regarding `CCCc1cc(N2CCN(CCCCN3C(=O)CCc4ccccc43)CC2)nc(C(C)(C)C)n1` [Example 37, 1-{4-[4-(2-tert-Butyl-6-propylpyrimidin-4-yl)piperazin-1-yl]butyl}-3,4-dihydroquinolin-2(1H)-one], in experiment [1], the Ki came out at 1.59 nM. In experiment [2], the “Selectivity vs. D2L (Ki(D2L)/Ki(D3))” value was 38.

`CCCc1cc(N2CCN(CCCCN3C(=O)CCc4c(OC)cccc43)CC2)nc(C(C)(C)C)n1` [Example 33, 1-{4-[4-(2-tert-Butyl-6-propylpyrimidin-4-yl)piperazin-1-yl]butyl}-5-methoxy-3,4-dihydroquinolin-2(1H)-one]: the Ki in experiment [1] turned out to be 1.71 nM. Also, the “Selectivity vs. D2L (Ki(D2L)/Ki(D3))” value in experiment [2] stood at 65.

With `CC(C)(C)c1nc(N2CCN(C/C=C/CN3C(=O)CCc4ccccc43)CC2)cc(C(F)(F)F)n1` [Example 10, 1-((2E)-4-{4-[2-tert-Butyl-6-(trifluoromethyl)pyrimidin-4-yl]piperazin-1-yl}but-2-enyl)-3,4-dihydroquinolin-2(1H)-one], the Ki in experiment [1] came to 9.2 nM.

Regarding `CCCc1cc(N2CCN(CCCCN3C(=O)CCCc4c(O)cccc43)CC2)nc(C(C)(C)C)n1` [Example 56, 4-(2-tert-butyl-6-propyl-pyrimidin-4-yl)-1-[4-(6-hydroxy-2-oxo-2,3,4,5-tetrahydro-benzo[b]azepin-1-yl)butyl]piperazine], the affinity in experiment [1] corresponds to a Ki of 0.69 nM. In addition, in experiment [2], the “Selectivity vs. D2L (Ki(D2L)/Ki(D3))” value is 26.

For `CC(C)(C)c1nc(N2CCN(CCCN3C(=O)COc4ccccc43)CC2)cc(C(F)(F)F)n1` [Example 2, 4-(3-{4-[2-tert-Butyl-6-(trifluoromethyl)pyrimidin-4-yl]piperazin-1-yl}propyl)-2H-1,4-benzoxazin-3(4H)-one], in experiment [1], the Ki is 12.1 nM. The “Selectivity vs. D2L (Ki(D2L)/Ki(D3))” value in experiment [2] is 29.

On to `CC(C)(C)c1nc(C(F)F)cc(N2CCN(CCCCN3C(=O)CCc4c(O)cccc43)CC2)n1` [Example 36, 1-(4-{4-[2-tert-Butyl-6-(difluoromethyl)pyrimidin-4-yl]piperazin-1-yl}butyl)-5-hydroxy-3,4-dihydroquinolin-2(1H)-one], for which the Ki in experiment [1] worked out at 1.18 nM. Moreover, the “Selectivity vs. D2L (Ki(D2L)/Ki(D3))” value in experiment [2] worked out at 41.

In experiment [1], `CCCc1cc(N2CCN(CCCCN3C(=O)CCCc4c(OC)cccc43)CC2)nc(C(C)(C)C)n1` [Example 54, 1-{4-[4-(2-tert-Butyl-6-propyl-pyrimidin-4-yl)piperazin-1-yl]butyl}-6-methoxy-1,3,4,5-tetrahydro-benzo[b]azepin-2-one] yielded a Ki of 2.25 nM. For the same compound, the “Selectivity vs. D2L (Ki(D2L)/Ki(D3))” value in experiment [2] is reported as 25.

As for `CC(C)(C)c1nc(N2CCN(CCCCN3C(=O)CCC4=C3CCCC4=O)CC2)cc(C(F)(F)F)n1` [Example 45, 1-{4-[4-(2-tert-Butyl-6-trifluoromethyl-pyrimidin-4-yl)piperazin-1-yl]butyl}-4,6,7,8-tetrahydro-1H,3H-quinoline-2,5-dione], the Ki in experiment [1] was found to be 4.68 nM. Also, the “Selectivity vs. D2L (Ki(D2L)/Ki(D3))” value in experiment [2] is reported as 41.

As for `CCCc1cc(N2CCN(CCCCN3C(=O)CCC4=C3CCCC4=O)CC2)nc(C(C)(C)C)n1` [Example 44, 1-{4-[4-(2-tert-Butyl-6-propyl-pyrimidin-4-yl)piperazin-1-yl]butyl}-4,6,7,8-tetrahydro-1H,3H-quinoline-2,5-dione], the affinity in experiment [1], expressed as Ki, was 1.54 nM. Also, in experiment [2], the “Selectivity vs. D2L (Ki(D2L)/Ki(D3))” value is reported as 29.

As to `CC(C)(C)c1nc(N2CCN(CCCN3C(=O)CCc4ccccc43)CC2)cc(C(F)(F)F)n1.Cl` [Example 1, 1-[2-tert-Butyl-6-(trifluoromethyl)pyrimidin-4-yl]-4-[3-(2-oxo-3,4-dihydroquinolin-1(2H)-yl)propyl]piperazin-4-ium chloride], the Ki in experiment [1] came to 3.43 nM. Further, in experiment [2], the “Selectivity vs. D2L (Ki(D2L)/Ki(D3))” value was 37.

Values taken from US8268815B2, “Pyrimidine compounds and use thereof” (Abbott GmbH & Co. KG, priority 2004, dated 2012).
